Source: the supplement of paper PMC10307832

Legend:
Test in all cases: relative viability (nuclei count vs DMSO), 5 days (fraction); higher = more cells survive
NCI-H1755 = test system: NCI-H1755
Outline: (§1)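 Relative viability is defined as nuclei in treated wells over nuclei in vehicle wells. Duplicate plates were run and medians reported. Lung cancer cell lines in 1536-well plates were dosed by pin tool one day after seeding, with one drug or with a fixed anchor-drug dose plus five library-drug doses (not always all listed) in √10 steps, and nuclei were counted after 5 days.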

PC-3 [JPC-3] = test system: PC-3 [JPC-3]
Outline: as §1

HCC-15 = test system: HCC-15
Outline: as §1

PC-14 = test system: PC-14
Outline: as §1

NCI-H1437 = test system: NCI-H1437
Outline: as §1

UMC-11 = test system: UMC-11
Outline: as §1

NCI-H3122 = test system: NCI-H3122
Outline: as §1

IA-LM = test system: IA-LM
Outline: as §1

A-427 = test system: A-427
Outline: as §1

NCI-H2405 = test system: NCI-H2405
Outline: as §1

NCI-H441 = test system: NCI-H441
Outline: as §1

H3255 = test system: H3255
Outline: as §1

NCI-H1915 = test system: NCI-H1915
Outline: as §1

HCC-366 = test system: HCC-366
Outline: as §1

NCI-H1975 = test system: NCI-H1975
Outline: as §1

HARA = test system: HARA
Outline: as §1

NCI-H2009 = test system: NCI-H2009
Outline: as §1

NCI-H650 = test system: NCI-H650
Outline: as §1

SK-LU-1 = test system: SK-LU-1
Outline: as §1

LXF-289 = test system: LXF-289
Outline: as §1

NCI-H460 = test system: NCI-H460
Outline: as §1

NCI-H2023 = test system: NCI-H2023
Outline: as §1

NCI-H596 = test system: NCI-H596
Outline: as §1

NCI-H1793 = test system: NCI-H1793
Outline: as §1

CCCCCCCCCCCC1=C(O)C(=O)C=C(O)C1=O [Embelin] + CC(C)C[C@H](NC(=O)[C@H](Cc1ccccc1)NC(=O)c1cnccn1)B(O)O [Bortezomib] (partner 0.002 µM)
relative viability (NCI-H1755; first compound 0.08 µM): 0.987
relative viability (NCI-H1755; first compound 0.8 µM): 1.07
relative viability (NCI-H1755; first compound 2.53 µM): 0.971
relative viability (NCI-H1755; first compound 8 µM): 0.917
relative viability (PC-3 [JPC-3]; first compound 0.08 µM): 0.831
relative viability (PC-3 [JPC-3]; first compound 0.8 µM): 0.908
relative viability (PC-3 [JPC-3]; first compound 2.53 µM): 0.927
relative viability (PC-3 [JPC-3]; first compound 8 µM): 0.806
relative viability (HCC-15; first compound 0.08 µM): 1.07
relative viability (HCC-15; first compound 0.8 µM): 1.02
relative viability (HCC-15; first compound 2.53 µM): 1.18
relative viability (HCC-15; first compound 8 µM): 1.11
relative viability (PC-14; first compound 0.08 µM): 0.858
relative viability (PC-14; first compound 0.8 µM): 0.899
relative viability (PC-14; first compound 2.53 µM): 0.84
relative viability (PC-14; first compound 8 µM): 0.87
relative viability (NCI-H1437; first compound 0.08 µM): 0.602
relative viability (NCI-H1437; first compound 0.8 µM): 0.528
relative viability (NCI-H1437; first compound 2.53 µM): 0.618
relative viability (NCI-H1437; first compound 8 µM): 0.347
relative viability (UMC-11; first compound 0.08 µM): 0.771
relative viability (UMC-11; first compound 0.8 µM): 0.966
relative viability (UMC-11; first compound 2.53 µM): 0.896
relative viability (UMC-11; first compound 8 µM): 0.547
relative viability (NCI-H3122; first compound 0.08 µM): 0.978
relative viability (NCI-H3122; first compound 0.8 µM): 1.03
relative viability (NCI-H3122; first compound 2.53 µM): 0.916
relative viability (NCI-H3122; first compound 8 µM): 0.992
relative viability (IA-LM; first compound 0.08 µM): 0.769
relative viability (IA-LM; first compound 0.8 µM): 0.904
relative viability (IA-LM; first compound 2.53 µM): 0.913
relative viability (IA-LM; first compound 8 µM): 0.381
relative viability (A-427; first compound 0.08 µM): 1.05
relative viability (A-427; first compound 0.8 µM): 1.11
relative viability (A-427; first compound 2.53 µM): 0.978
relative viability (A-427; first compound 8 µM): 0.904
relative viability (NCI-H2405; first compound 0.08 µM): 1.03
relative viability (NCI-H2405; first compound 0.8 µM): 1.03
relative viability (NCI-H2405; first compound 2.53 µM): 1.02
relative viability (NCI-H2405; first compound 8 µM): 1.01
relative viability (NCI-H441; first compound 0.08 µM): 0.448
relative viability (NCI-H441; first compound 2.53 µM): 0.251
relative viability (NCI-H441; first compound 8 µM): 0.475
relative viability (H3255; first compound 0.08 µM): 0.962
relative viability (H3255; first compound 0.8 µM): 0.975
relative viability (H3255; first compound 2.53 µM): 0.702
relative viability (H3255; first compound 8 µM): 0.889
relative viability (NCI-H1915; first compound 0.08 µM): 0.951
relative viability (NCI-H1915; first compound 0.8 µM): 1.02
relative viability (NCI-H1915; first compound 2.53 µM): 1.13
relative viability (NCI-H1915; first compound 8 µM): 0.998
relative viability (HCC-366; first compound 0.08 µM): 1.05
relative viability (HCC-366; first compound 0.8 µM): 1.05
relative viability (HCC-366; first compound 2.53 µM): 1.43
relative viability (HCC-366; first compound 8 µM): 1.1
relative viability (NCI-H1975; first compound 0.08 µM): 0.45
relative viability (NCI-H1975; first compound 0.8 µM): 0.432
relative viability (NCI-H1975; first compound 2.53 µM): 0.372
relative viability (NCI-H1975; first compound 8 µM): 0.367
relative viability (HARA; first compound 0.08 µM): 1.05
relative viability (HARA; first compound 0.8 µM): 1.25
relative viability (HARA; first compound 2.53 µM): 1.13
relative viability (HARA; first compound 8 µM): 1.26
relative viability (NCI-H2009; first compound 0.08 µM): 1.07
relative viability (NCI-H2009; first compound 0.8 µM): 1.18
relative viability (NCI-H2009; first compound 2.53 µM): 0.916
relative viability (NCI-H2009; first compound 8 µM): 0.9
relative viability (NCI-H650; first compound 0.08 µM): 0.64
relative viability (NCI-H650; first compound 0.8 µM): 1
relative viability (NCI-H650; first compound 2.53 µM): 0.668
relative viability (NCI-H650; first compound 8 µM): 0.453
relative viability (SK-LU-1; first compound 0.08 µM): 1.23
relative viability (SK-LU-1; first compound 0.8 µM): 1.95
relative viability (SK-LU-1; first compound 2.53 µM): 0.982
relative viability (SK-LU-1; first compound 8 µM): 0.929
relative viability (LXF-289; first compound 0.08 µM): 1.01
relative viability (LXF-289; first compound 0.8 µM): 1
relative viability (LXF-289; first compound 2.53 µM): 1
relative viability (LXF-289; first compound 8 µM): 1.05
relative viability (NCI-H460; first compound 0.08 µM): 0.961
relative viability (NCI-H460; first compound 0.8 µM): 1.27
relative viability (NCI-H460; first compound 2.53 µM): 1.38
relative viability (NCI-H460; first compound 8 µM): 1.19
relative viability (NCI-H2023; first compound 0.08 µM): 0.915
relative viability (NCI-H2023; first compound 0.8 µM): 1.12
relative viability (NCI-H2023; first compound 2.53 µM): 1.07
relative viability (NCI-H2023; first compound 8 µM): 0.578
relative viability (NCI-H596; first compound 0.08 µM): 0.955
relative viability (NCI-H596; first compound 0.8 µM): 1.17
relative viability (NCI-H596; first compound 2.53 µM): 1.3
relative viability (NCI-H596; first compound 8 µM): 0.87

CCCCCCCCCCCC1=C(O)C(=O)C=C(O)C1=O [Embelin] + CS(=O)(=O)CCNCc1ccc(-c2ccc3ncnc(Nc4ccc(OCc5cccc(F)c5)c(Cl)c4)c3c2)o1 [Lapatinib] (partner 2 µM)
relative viability (NCI-H1755; first compound 0.08 µM): 1.03
relative viability (NCI-H1755; first compound 0.8 µM): 1.04
relative viability (NCI-H1755; first compound 2.53 µM): 1.06
relative viability (NCI-H1755; first compound 8 µM): 0.97
relative viability (PC-3 [JPC-3]; first compound 0.08 µM): 0.428
relative viability (PC-3 [JPC-3]; first compound 0.8 µM): 0.473
relative viability (PC-3 [JPC-3]; first compound 2.53 µM): 0.477
relative viability (PC-3 [JPC-3]; first compound 8 µM): 0.406
relative viability (HCC-15; first compound 0.08 µM): 0.835
relative viability (HCC-15; first compound 0.8 µM): 0.92
relative viability (HCC-15; first compound 2.53 µM): 0.944
relative viability (HCC-15; first compound 8 µM): 0.795
relative viability (PC-14; first compound 0.08 µM): 0.391
relative viability (PC-14; first compound 0.8 µM): 0.355
relative viability (PC-14; first compound 2.53 µM): 0.347
relative viability (PC-14; first compound 8 µM): 0.353
relative viability (NCI-H1437; first compound 0.08 µM): 0.784
relative viability (NCI-H1437; first compound 0.8 µM): 0.938
relative viability (NCI-H1437; first compound 2.53 µM): 1.04
relative viability (NCI-H1437; first compound 8 µM): 0.466
relative viability (NCI-H1793; first compound 0.08 µM): 0.68
relative viability (NCI-H1793; first compound 0.8 µM): 0.833
relative viability (NCI-H1793; first compound 2.53 µM): 0.801
relative viability (NCI-H1793; first compound 8 µM): 0.686
relative viability (UMC-11; first compound 0.08 µM): 1.12
relative viability (UMC-11; first compound 0.8 µM): 1.17
relative viability (UMC-11; first compound 2.53 µM): 1.08
relative viability (UMC-11; first compound 8 µM): 0.877
relative viability (NCI-H3122; first compound 0.08 µM): 1.02
relative viability (NCI-H3122; first compound 0.8 µM): 0.977
relative viability (NCI-H3122; first compound 2.53 µM): 0.956
relative viability (NCI-H3122; first compound 8 µM): 1.09
relative viability (IA-LM; first compound 0.08 µM): 0.769
relative viability (IA-LM; first compound 0.8 µM): 0.894
relative viability (IA-LM; first compound 2.53 µM): 0.789
relative viability (IA-LM; first compound 8 µM): 0.645
relative viability (A-427; first compound 0.08 µM): 1.07
relative viability (A-427; first compound 0.8 µM): 1.05
relative viability (A-427; first compound 2.53 µM): 1.2
relative viability (A-427; first compound 8 µM): 0.947
relative viability (NCI-H2405; first compound 0.08 µM): 1.16
relative viability (NCI-H2405; first compound 0.8 µM): 1.48
relative viability (NCI-H2405; first compound 2.53 µM): 1.06
relative viability (NCI-H2405; first compound 8 µM): 1.02
relative viability (H3255; first compound 0.08 µM): 0.225
relative viability (H3255; first compound 0.8 µM): 0.281
relative viability (H3255; first compound 2.53 µM): 0.234
relative viability (H3255; first compound 8 µM): 0.281
relative viability (NCI-H1915; first compound 0.08 µM): 0.96
relative viability (NCI-H1915; first compound 0.8 µM): 0.984
relative viability (NCI-H1915; first compound 2.53 µM): 1.08
relative viability (NCI-H1915; first compound 8 µM): 0.956
relative viability (HCC-366; first compound 0.08 µM): 1.08
relative viability (HCC-366; first compound 0.8 µM): 1.11
relative viability (HCC-366; first compound 2.53 µM): 1.21
relative viability (HCC-366; first compound 8 µM): 1.32
relative viability (NCI-H1975; first compound 0.08 µM): 0.807
relative viability (NCI-H1975; first compound 0.8 µM): 0.951
relative viability (NCI-H1975; first compound 2.53 µM): 1.09
relative viability (NCI-H1975; first compound 8 µM): 0.872
relative viability (HARA; first compound 0.08 µM): 0.665
relative viability (HARA; first compound 0.8 µM): 0.961
relative viability (HARA; first compound 2.53 µM): 0.895
relative viability (HARA; first compound 8 µM): 0.755
relative viability (NCI-H2009; first compound 0.08 µM): 1.05
relative viability (NCI-H2009; first compound 0.8 µM): 1.09
relative viability (NCI-H2009; first compound 2.53 µM): 0.815
relative viability (NCI-H2009; first compound 8 µM): 0.879
relative viability (NCI-H650; first compound 0.08 µM): 0.677
relative viability (NCI-H650; first compound 0.8 µM): 1.47
relative viability (NCI-H650; first compound 2.53 µM): 0.831
relative viability (NCI-H650; first compound 8 µM): 0.658
relative viability (SK-LU-1; first compound 0.08 µM): 1
relative viability (SK-LU-1; first compound 0.8 µM): 1.15
relative viability (SK-LU-1; first compound 2.53 µM): 0.9
relative viability (SK-LU-1; first compound 8 µM): 0.863
relative viability (LXF-289; first compound 0.08 µM): 0.961
relative viability (LXF-289; first compound 0.8 µM): 0.882
relative viability (LXF-289; first compound 2.53 µM): 0.978
relative viability (LXF-289; first compound 8 µM): 0.936
relative viability (NCI-H460; first compound 0.08 µM): 1.04
relative viability (NCI-H460; first compound 0.8 µM): 1.1
relative viability (NCI-H460; first compound 8 µM): 1.1
relative viability (NCI-H2023; first compound 0.08 µM): 0.837
relative viability (NCI-H2023; first compound 0.8 µM): 0.979
relative viability (NCI-H2023; first compound 2.53 µM): 0.838
relative viability (NCI-H2023; first compound 8 µM): 0.477
relative viability (NCI-H596; first compound 0.08 µM): 1.17
relative viability (NCI-H596; first compound 0.8 µM): 1.07
relative viability (NCI-H596; first compound 2.53 µM): 1.12
relative viability (NCI-H596; first compound 8 µM): 1.17
